Reference: patent publication US8546340B2, “Soothing pharmaceutical or cosmetic composition comprising a peptide that activates HMG-CoA reductase” (ISP Investments Inc., priority 2008, dated 2013)
No end group written: not given here.

Experiments:
HMG-CoA reductase = assay: Expression of HMG-CoA reductase in normal human keratinocytes (immunofluorescence); assay type: cell-based; settings: peptide 0.5 ppm (1% of 50 ppm stock), 24 or 48 hours
Experimental: Protocol: Normal human keratinocytes in culture are treated with a 1% stock solution at 50 ppm of peptide SEQ ID No. 5 for 24 or 48 hours (the medium in the presence of the active ingredient is changed every 24 hours). The cells are then washed and fixed in cold methanol for 4 minutes at 4° C. The cells are incubated in the presence of a polyclonal rabbit antibody specific for HMG-CoA reductase (Millipore, Upstate), and then a secondary antibody coupled with a fluorescent dye. The cells are then examined by epifluorescence microscope (Nikon Eclipse E600 microscope).

interleukin-1 alpha = assay: Ex vivo IL-1 alpha secretion by human skin biopsies (ELISA); assay type: cell-based; settings: peptide 0.5 ppm 24 h, vs controls untreated by the peptide
Experimental: Protocol: 5 mm-diameter biopsies of human skin are maintained in culture at the air-liquid interface in the presence of standard culture medium. The samples are treated with a 1% dilution of a solution at 50 ppm of peptide SEQ ID No. 5 for 24 hours, and then irradiated by UVB radiation (200 mJ/cm^2) and put back in culture for 24 hours, or subjected to contact with SDS at 2.5% for 24 hours in the presence of the same concentration of peptide SEQ ID No. 5. Controls untreated by the peptide are carried out under the same conditions. At the end of the experiment, the quantity of interleukin-1 alpha salted out in the culture medium is assayed by the ELISA technique.

Ala-Gly-Glu-Leu-Ser-NH2 (AGELS-NH2) [Peptide SEQ ID No. 5]
expression of HMG-CoA reductase (cytoplasmic fluorescence, microscopic observation) (HMG-CoA reductase): more intense cytoplasmic fluorescence
reduction of quantity of IL-1 alpha salted out in culture medium (interleukin-1 alpha; SDS 2.5% for 24 hours with peptide): 58%
reduction of quantity of IL-1 alpha salted out in culture medium (interleukin-1 alpha; UVB 200 mJ/cm^2, then 24 h culture): 40%
